Where two headings read alike, the source gives them in different places.
How the values were obtained:
[1] = tested on: panel of breast cancer cell lines; assay: Colony formation assay, IC50, panel of breast cancer cell lines; assay type: cell-based; conditions: for association of pattern of sensitivity across cell line panel with relative expression of BRCA1/BLM and BLM/Actin: panel of breast cancer cell lines
Description: Three cell lines (BT549, HCC1143, and HCC38) are normal genotype for BRCA1 and have high BLM/Actin and low ratio of BRCA1/BLM. Two cell lines (MDA231 and MDA453) are also normal genotype for BRCA1 but have relatively higher expression of BRCA1/BLM and lower BLM/actin. HCC1937 and MDA436 have homozygous mutation in BRCA1 and undetectable BRCA1/BLM, and higher expression of BLM/Actin.
A panel of cell lines was evaluated for sensitivity to various treatments as indicated by colony formation assay and calculation of IC50 values.

[2] = tested on: MDA231 breast cancer cells; assay: Colony formation assay, IC50 for cisplatin, MDA231 cells with BLM overexpression; assay type: cell-based
Description: These cells were used in experiments to assess the effect of increasing the expression of BLM. A lentivirus expression vector for HA-tagged BLM cDNA or a control vector was transfected into MDA231 cells. BLM expression was assessed by Western blot analysis for endogenous BLM or for the HA-tag in cells treated with control vector, BLM cDNA, BLM cDNA and a small molecule inhibitor of BLM helicase (BLMi), or BLM cDNA and BLM siRNA.
IC50 for cisplatin was determined by colony formation assay in MDA231 breast cancer cells treated with control vector, BLM cDNA vector, BLM cDNA plus the BLM small molecule inhibitor, and BLM cDNA plus BLM siRNA. […] Consistent with the other findings, this effect was reversed by treatment with the BLM helicase inhibitor and by siRNA knockdown of BLM.

[3] = tested on: BT549 breast cancer cells; assay: Colony formation assay, IC50, BT549 cells treated with siRNAs to BLM or FANCI; assay type: cell-based; conditions: versus scramble control
Description: We further treated BT549 breast cancer cells, with inherent high levels of BLM and FANCI were treated with gene-specific siRNAs to BLM or FANCI or with a scramble control.

[4] = tested on: triple negative breast cancer; conditions: TNBC patients, neoadjuvant cisplatin in combination with bevacizumab; 44 patients completed therapy (Ryan et al., JCO 2009); cited from earlier work
H2AX and 53BP1 foci = assay: Immunofluorescence assay for markers of DNA damage (H2Ax-p and 53BP1-p) in MDA231 cells; assay type: cell-based; conditions: cisplatin after 4 hours, compared with no cisplatin treatment
Description: We also performed an immunofluorescence assay for markers of DNA damage (H2Ax-p and 53BP1-p) in MDA231 cells treated with control vector, BLM cDNA, BLM cDNA+BLM inhibitor, or BLM cDNA+BLM siRNA. Overexpression of BLM results in increased H2AX and 53BP1 foci in the absence of any cisplatin treatment indicating spontaneous DNA damage. This effect is even greater in cells treated with cisplatin after 4 hours. The quantitation of foci is shown in the lower bar graphs. The addition of a small molecule BLM helicase inhibitor (Bi) or siRNA to BLM (si) blocks the effect of BLM overexpression on DNA damage foci.

[5] = tested on: triple negative breast cancer; conditions: 28 TNBC patients, neoadjuvant cisplatin as single agent (Silver et al., JCO 2010); cited from earlier work
[6] = two BRCA1 mutated cell lines (HCC1937, MDA436) and three cell lines with low BRCA1/BLM and high BLM/actin (BT549, HCC1143, HCC38)
[7] = two cell lines with low BLM and high BRCA1/BLM (MDA231, MDA453)

SMILES	association of pattern of sensitivity across cell line panel with relative expression of BRCA1/BLM and BLM/Actin [1]	sensitivity by colony formation assay (IC50) [1, 6]	sensitivity by colony formation assay (IC50) [1, 7]	sensitivity of MDA231 cells ([2]; MDA231 cells with low levels of BLM)	effect of overexpression of BLM on IC50 for cisplatin ([2]; MDA231 cells, BLM cDNA vector versus control vector)	effect of siRNA knockdown of either BLM or FANCI on IC50 [3]	patients who achieved at least 90% reduction in tumor size [4]	H2AX and 53BP1 foci in BLM overexpressing cells (H2AX and 53BP1 foci)	patients who achieved at least 90% reduction in tumor size [5]
O=C(c1cc(Cc2n[nH]c(=O)c3ccccc23)ccc1F)N1CCN(C(=O)C2CC2)CC1 [Olaparib]	associated	greater sensitivity	relatively resistant	–	–	–	–	–	–
N.N.[Cl][Pt][Cl] [cisplatin, cis-diamminedichloroplatinum]	associated	greater sensitivity	relatively resistant	relative resistance	decrease in the IC50 (greater sensitivity)	increased IC50 (greater resistance)	39%	even greater	36%
CC(=O)O[C@H]1C(=O)[C@@]2(C)[C@H]([C@H](OC(=O)c3ccccc3)[C@]3(O)C[C@H](OC(=O)[C@H](O)[C@@H](NC(=O)c4ccccc4)c4ccccc4)C(C)=C1C3(C)C)[C@]1(OC(C)=O)CO[C@@H]1C[C@@H]2O [Paclitaxel]	no apparent association	–	–	–	–	no significant effect	–	–	–

Source: patent US10308986B2, “Cancer diagnosis, treatment selection and treatment” (CHILDREN'S MEDICAL CENTER CORPORATION, priority 2013, dated 2019)
